Laboratory results reported in patent US20170051149A1, “AZOARYLS AS REVERSIBLY MODULATABLE TUBULIN INHIBITORS” (ECOLE NORMALE SUPERIEURE DE LYON, priority 2014, published 2017).

Tests used:
[1] = UV-Vis absorption spectra of trans and cis isomers (λstrong, εE, λiso); format: physicochemical; settings: PBS pH = 7.4, 20% MeCN
Protocol: A(λmeas, λirrad) is used to indicate the measured UV-Vis absorption spectrum in the range 340 nm<λmeas<650 nm, as a function of the irradiating wavelength λirrad once PSS(λirrad) has been established. UV-Vis measurement of A(λmeas, λirrad) was performed. It was considered that the PSS had been established when the absorbance profile ceased to alter under continued irradiation. An isosbestic point (wavelength λiso) was found for each compound by examining where the absorption A(λmeas) was invariant with respect to changing λirrad. A(λmeas, dark) was also acquired with samples that had been kept in the dark for at least several hours, and it was assumed that no significant spectral contribution from the cis isomer was present in these spectra. […]
HPLC (high-performance liquid chromatography) was then used as described in Part A to measure ε*E(λ) and ε*Z(λ) (the separated absorption profiles of trans and cis isomers respectively, in arbitrary units which are not intercomparable in an absolute sense). It was approximated that these spectra would be identical in shape if measured under the UV-Vis conditions, so once ε*E(λ) and ε*Z(λ) were scaled appropriately relative to each other, these scaled spectra could be used to deconvolute A(λmeas, λirrad). This approximation was considered useful especially in the regions of greatest spectral interest, ie. regions of relatively strong absorption (since only rather well-absorbed wavelengths will allow significant photoisomerisation under finite photon flux). To place the arbitrary-unit absorption spectra on an absolute scale, the maximal absorption wavelength λstrong of the trans-isomer was first selected by examining A(λmeas, dark): typically, λstrong≈380 nm. with Expressing A(λstrong, dark) in units M^−1cm^−1, ε*E(λstrong) was then scaled so that εE(λstrong)=A(λstrong, dark), giving:
εE(λ)=ε*E(λ)×[A(λstrong,dark)/ε*E(λstrong)]
and the isosbestic point was used to scale the cis-isomer spectrum as per:
εZ(λ)=ε*Z(λ)×[εE(λiso)/ε*Z(λiso)]
However, using A(λstrong, dark) was preferred, since A(λiso) was typically so much smaller that the standard deviation in the scaled absorptivities which it generated was far greater.
Absorption spectra in cuvette (“UV-Vis”) were acquired on a Varian CaryScan 50 (1 cm, 100 μL or 1 mL volume) with Peltier cell temperature control unit maintained at 37° C., in PBS at pH˜7.4 containing a low percentage of cosolvent if needed (typically 2% MeCN or 5% DMSO). A ThorLabs Polychrome V monochromator with a fibre optic cable output directed into the cuvette was used to perform photoisomerisation studies by UV-Vis spectrophotometry although single LEDs of approximately 10-20 mW output, 15-20° cone angle, and 10-15 nm bandwidth FWHM, obtained commercially from Roithner Lasertechnik GmbH, were equally successful in providing repeatable monochromatic photoisomerisation. Separated spectra of trans and […] forms were acquired from the inline Diode Array Detector on the AGILENT 1260 SL coupled LC-MS system after HPLC separation. Fluorescence spectrophotometry (excitation and emission spectra) were acquired on a Varian CaryEclipse fluorescence spectrophotometer.
By the above procedure, the trans- and cis-isomers of each species were separated by HPLC as described in Part A, and ε*E(λ) and ε*Z(λ) were measured on the inline ultraviolet/visible Diode Array Detector; these were then scaled as outlined above. The parameters λstrong, εE(λstrong) and λiso are tabulated for selected compounds below (Table 1).

[2] = thermal reversion halflife of spontaneous cis->trans isomerisation; format: physicochemical; settings: PBS pH = 7.4, 20% MeCN
Excerpt: Finally, trends in τ were ascertained by establishing the PSS at λstrong, then turning off the light source at time t0, and measuring A(λstrong, t) over time. Data were acquired for half an hour, or else the first three halflives (whichever was the shorter period), then fitted to the equation:
A(λstrong,t)=A(λstrong,dark)−[A(λstrong,dark)−A(λstrong,t0)]×e^−kt
This fit was used to return an in vitro halflife τ* for the cis->trans spontaneous thermal reversion isomerisation process, defined as τ=ln 2/k. It should be noted however, that azoaryl compounds' thermal reversion rates are known to depend strongly upon their microenvironment, such as pH and solvent/solvation effects^[7,38]. This was shown for compound (I.1), where a change of only 1.4 pH units gave a 25% change in τ*; note that different compounds are expected to respond very differently to changes in pH so no unifying trends are expected. Therefore the τ* acquired in vitro were considered appropriate only for qualitative intercomparison between samples (trend of τ* vs structure), rather than quantitative prediction of the τ values which might be experienced in cellulo or in vivo. Indeed, these in vitro τ* values appeared at least three times longer than what would have been expected based on in cellulo experiments where the pause time between activating pulses was varied.
Thermal reversion times were measured as described above. Those for selected compounds are presented below (Table 2).

[3] = photoisomerisation: photostationary state, calculated φ(λ) and E(λ), reversible cycling; format: physicochemical; settings: irradiation at 390 nm
Protocol: In a simple analysis of the PSS(λ) and E(λ), it was approximated that ΦEZ and ΦZE (the quantum efficiencies of the photoisomerisations trans->cis and cis->trans, respectively) are equal and independent of wavelength, and also that the kinetics of spontaneous reversion could be ignored (eg. high-intensity light source). A function φ(λ) was then calculated as per: […]
If ΦEZ and ΦZE are equal and independent of wavelength, φ(λ) gives the true PSS(λ). The wavelength independence of ΦEZ and ΦZE may be an acceptable approximation in regions of relatively strong absorption within the visible spectrum. Their equality may also be an acceptable assumption: since if ΦEZ and ΦZE are unequal but only depend weakly on wavelength in regions of relatively strong absorption, then φ(λ) is a transform of the true PSS(λ); this transform preserves the features of PSS(λ) which were most desired for evaluation in this study as long as ΦEZ and ΦZE are not too different (eg less than a factor of ten difference). Indeed, the calculated φ(λ) were later confirmed by in cellulo experiments to give reliable indications of favourable wavelengths for bulk trans->cis and bulk cis->trans photoisomerisation, which is the benchmark for a suitable analysis of the PSS(λ). The advantages of calculating φ(λ) rather than exhaustively measuring the PSS(λ) experimentally are that (a) the throughput is much faster, (b) the true PSS(λ) may be difficult to achieve at weakly-absorbing wavelengths or with fast-relaxing compounds, (c) the true PSS(λ) may be difficult to measure accurately at wavelengths where one isomer strongly dominates the sample even if both are relatively strongly absorbing, and (d) the variation of PSS(λ) with changes in the local biological microenvironment (polarity, pH etc) may anyway be larger than the error incurred by the assumption φ(λ)═PSS(λ).
Also following the assumption that ΦEZ and ΦZE are equal and independent of wavelength, a photoisomerisation efficiency E(λ) was calculated as per:
E(λ)=[εE(λ)+εZ(λ)]/[εE(390)+εZ(390)]
Larger values of E(λ) therefore denote higher efficiency photoisomerisation (less photon flux is required to approach the PSS(λ)). E(λ) was parametrised to the absorption coefficients at 390 nm, since typically that wavelength gave satisfactorily strong absorption and efficient photoisomerisation. It should be noted that E(λ) are not intercomparable between different compounds. This reflects the realistic scenario that the ΦEZ (or the ΦZE) of two arbitrarily chosen compounds may differ by a significant amount, even if the approximation that ΦEZ and ΦZE are equal and independent of wavelength applies independently to each compound.
A(λstrong) was measured over time in the UV-Vis cuvette in non-degassed PBS left open to the atmosphere, […], at 37° C., while the monochromator was used to apply λirrad alternating between two values λ1 and λ2, chosen to induce net trans->cis and net cis->trans isomerisation respectively. Typical results are presented for compound I.1 (FIG. 3). The absorbance of I.1 (18 μM) was measured at λstrong=378 nm, while the irradiating wavelength was held alternately at λ1=388 nm (50 s; bulk trans->cis) then λ2=508 nm (180 s, bulk cis->trans). Higher absorbance corresponds to a greater amount of trans isomer: an absorbance of 0.27 here corresponds to an approximately 5:1 ratio of trans:cis isomer in the sample, and an absorbance of 0.12 here corresponds to an approximately 1:2 ratio of trans:cis isomer in the sample. […] Typically, compounds of the invention could be bulk-photoisomerised hundreds of times over a timescale of hours (50 representative cycles are shown in FIG. 3 for I.1), such that the majority species in a sample was photocontrollably alternated between the trans-isomer and the cis-isomer. […]

HeLa cells = experiment: cytotoxicity by crystal violet staining; format: cell-based; settings: 40 h
Protocol: Seven of the compounds according to the invention were selected for biological tests. Their cytotoxicity was assessed using crystal violet staining as adapted from standard procedure^[31]. Briefly, HeLa cells were seeded on 96-well plates, treated with the given concentrations of the selected compound, and exposed or not to the pulse protocol of illumination with light at 390 nm (pulses of 75 ms every 15 s). After 40 h cells were stained with crystal violet solution (0.5% crystal violet in 20% methanol) for 10 min. Unbound crystal violet was removed by rinsing with distilled water and cells were air-dried. Crystal violet was subsequently eluted from cells with 0.1 M sodium citrate in 50% ethanol. The absorbance of crystal violet is proportional to the cell number and was determined at 590 nm with a FLUOstar Omega microplate reader (BMG Labtech).
Each compound was tested at 6 doses: 100 nM, 500 nM, 1 μM, 2 μM, 5 μM and 10 μM. In order to ensure their solubility in the cell culture media, DMSO was used as a co-solvent, and to provide comparability between all samples the volume of DMSO was adjusted to obtain its final concentration as 1% in the cell culture media for all the compounds at all concentrations tested.
Results presented in Table 4 below are expressed as a fold growth relative to the control growth of the cells treated only with a co-solvent (1% DMSO), and are represented as a mean value from triplicates coming from a representative experiment.

[4] = 100 nM, 390 nm (75 ms every 15 s)
[5] = 500 nM, 390 nm (75 ms every 15 s)
[6] = 1 μM, 390 nm (75 ms every 15 s)
[7] = 2 μM, 390 nm (75 ms every 15 s)
[8] = 5 μM, 390 nm (75 ms every 15 s)
[9] = 10 μM, 390 nm (75 ms every 15 s)

εE(λstrong) [1] [M⁻¹ cm⁻¹] | λstrong [1] [nm] | τ, reversion time [2] | λiso [1] [nm] | SMILES | change in absorbance spectrum upon irradiation [3] | mean fold growth (HeLa cells; [4]) [fold] | mean fold growth (HeLa cells; 100 nM, Dark) [fold] | mean fold growth (HeLa cells; [5]) [fold] | mean fold growth (HeLa cells; 500 nM, Dark) [fold] | mean fold growth (HeLa cells; [6]) [fold] | mean fold growth (HeLa cells; 1 μM, Dark) [fold] | mean fold growth (HeLa cells; [7]) [fold] | mean fold growth (HeLa cells; 2 μM, Dark) [fold] | mean fold growth (HeLa cells; [8]) [fold] | mean fold growth (HeLa cells; 5 μM, Dark) [fold] | mean fold growth (HeLa cells; [9]) [fold] | mean fold growth (HeLa cells; 10 μM, Dark) [fold]
14430 | 410 | TOO FAST | – | COc1ccc(N=Nc2cc(OC)c(OC)c(OC)c2)c(N)c1 [I.16, 5-methoxy-2-((3,4,5-trimethoxyphenyl)diazenyl)aniline] | no measurable change in absorbance spectrum | – | – | – | – | – | – | – | – | – | – | – | –
14900 | 390 | TOO FAST | – | COc1ccc(N=Nc2cc(OC)c(OC)c(OC)c2)c(O)c1 [I.8, 5-methoxy-2-((3,4,5-trimethoxyphenyl)diazenyl)phenol] | no measurable change in absorbance spectrum | – | – | – | – | – | – | – | – | – | – | – | –
11400 | 365 | 0.75 min | 470 | COc1ccc(N=Nc2cc(OC)c(OC)c(OC)c2)cc1N [I.2, 2-methoxy-5-((3,4,5-trimethoxyphenyl)diazenyl)aniline] | – | 1.10 | 0.97 | 0.83 | 0.90 | 0.50 | 0.89 | 0.47 | 0.81 | 0.32 | 0.86 | 0.34 | 0.70

More lines, now with the values behind:

SMILES | εE(λstrong) [1] [M⁻¹ cm⁻¹] | λstrong [1] [nm] | τ, reversion time [2] | λiso [1] [nm] | change in absorbance spectrum upon irradiation [3] | mean fold growth (HeLa cells; [4]) [fold] | mean fold growth (HeLa cells; 100 nM, Dark) [fold] | mean fold growth (HeLa cells; [5]) [fold] | mean fold growth (HeLa cells; 500 nM, Dark) [fold] | mean fold growth (HeLa cells; [6]) [fold] | mean fold growth (HeLa cells; 1 μM, Dark) [fold] | mean fold growth (HeLa cells; [7]) [fold] | mean fold growth (HeLa cells; 2 μM, Dark) [fold] | mean fold growth (HeLa cells; [8]) [fold] | mean fold growth (HeLa cells; 5 μM, Dark) [fold] | mean fold growth (HeLa cells; [9]) [fold] | mean fold growth (HeLa cells; 10 μM, Dark) [fold]
COc1ccc(N=Nc2cc(OC)c(OC)c(OC)c2)cc1 [I.6, 1-(4-methoxyphenyl)-2-(3,4,5-trimethoxyphenyl)diazene, reference compound] | 16300 | 365 | 83 min | 445 | – | 0.99 | 1.00 | 1.09 | 1.07 | 0.79 | 0.96 | 0.47 | 0.96 | 0.68 | 0.93 | 0.37 | 0.88
COc1ccc(N=Nc2cc(OC)c(OC)c(OC)c2)cc1F [I.3, 1-(3-fluoro-4-methoxyphenyl)-2-(3,4,5-trimethoxyphenyl)diazene] | 13300 | 365 | 61 min | 445 | – | 0.93 | 1.03 | 0.88 | 1.00 | 0.82 | 0.95 | 0.62 | 0.90 | 0.39 | 0.96 | 0.47 | 0.99
COc1ccc(N=Nc2cc(OC)c(OC)c(OC)c2)c(O)c1C [I.17, 3-methoxy-2-methyl-6-((3,4,5-trimethoxyphenyl)diazenyl)phenol] | 10872 | 385 | TOO FAST | – | no measurable change in absorbance spectrum | – | – | – | – | – | – | – | – | – | – | – | –
